We go through 6 substances from patent publication US20090246248A1, “COATING COMPOSITIONS HAVING IMPROVED PERFORMANCE” (priority 2008, published 2009).

The format of data set [1] is binding. The conditions noted are these: 18 hour incubation in 10% BSA+10 mM guanidinium chloride; FIG. 1. The text has this:
In this example, illustrated are unexpected beneficial properties of the composition of the invention, including but not limited to, one or more improved biophysical properties. Such one or more unexpected beneficial properties of a composition of the invention may comprise an increase in stability. An increase in stability may comprise any one or more of resistance to chemical denaturation, resistance to proteolytic degradation, improved retention to a substrate (e.g., resistance to being competed off a substrate to which it is bound, such as by proteins or other biomolecules found in body tissues). Thus, to ascertain a beneficial property of a composition of the invention, it is compared to the properties of a component of the composition-namely, a substrate-binding peptide by itself (e.g., without fatty acid covalently coupled thereto). An assay was developed that, from our direct comparisons (see, e.g., discussion of FIG. 2 below, and Example 7 herein), mimicked the effect of incubation of substrate-binding peptide with human plasma on stability of binding of a substrate-binding peptide to its substrate. The assay utilized incubations in the presence of 10% bovine serum album (BSA) with 10 mM guanidinium chloride. The high BSA concentration mimics the elevated albumin content of human plasma, and the guanidinium chloride is used to compete with any charged interactions involved in binding of the substrate-binding peptide to its substrate.
In this assay, two immunoassay plates were prepared for a “side-by-side” comparison of binding of a test sample (substrate-binding peptide or composition of the invention) to its substrate with or without the presence of 10% BSA with 10 mM guanidinium chloride. The wells of each 96-well polypropylene plate were incubated with 350 μl BSA 1% in PBS for 30 minutes at 20° C. with 500 rpm shaking. To each well was added one acetone-cleaned 3/32″ 316LVM stainless steel bead, followed by addition of dilutions in PBS of the test sample in a range of concentrations starting from 10 μM. Final volume in each well was 200 μl. The plates were incubated for 1 hour at 20° C. with 500 rpm shaking to allow for the binding to occur. The beads were washed 3 times with 250 μl PBS using a plate washer. […]
In the immunoassay for detecting binding without the presence of 10% BSA with 10 mM guanidinium chloride, added to each well was 200 μl of streptavidin AP (AP is alkaline phosphatase) at 1/200 in TBS+1% BSA. […] When color has developed, each well was read at OD405 nm in endpoint mode using a plate reader. […] When color has developed, the wells were read at OD405 nm in endpoint mode using a plate reader. […]

Data set [2] can be described thus: Critical micelle concentration (methyl orange assay). As to conditions: pH 7 PBS, A484. It is filed as physicochemical. Here is the method: Formation of a composition of the invention, and evidence of macromolecular network formation, may be monitored or quantified by any means known in the art. In this example, macromolecular formation was detected using a standard assay for determining critical micelle concentration (“CMC”). In this assay, a solution containing the composition of the invention (in a range of concentrations in pH 7 phosphate buffered saline (“PBS”)) was mixed with a solution of methyl orange (0.04 mM in PBS), and the absorbance of the mixture was measured at 484 nm (A484). CMC is the concentration at which a sharp decrease in absorbance at A484 is observed, a change in the optical properties of methyl orange when trapped in a hydrophobic phase, such as caused by self-association as a macromolecular network (Table 7, “CMC”). Also included in this assay were an assay control peptide having an amino acid sequence of SEQ ID NO:122 (Table 7, “Control”), and compound 119 (a PEGylated peptide, the peptide having an amino acid sequence of SEQ ID NO:122, as described in more detail in Example 6 herein).

Data set [3] can be described thus: Binding assay for glycopeptide antibiotic (biotinylated vancomycin, immobilized peptide). The conditions noted are these: peptide immobilized on streptavidin plate. Here is the method:
A typical binding assay for glycopeptide antibiotic was performed according to the following procedure. Briefly, synthetic peptides comprising an amino acid sequence to be characterized for binding were biotinylated to facilitate immobilization on streptavidin-coated 96-well plates. The microtiter plates were coated with streptavidin by adding 50 μl of a 10 μg/ml streptavidin solution in 0.1 M NaHCO3, and incubating the plates for at least 3 hours. The plate wells were blocked by adding 150 μl of a 1% BSA solution in 0.1 NaHCO3 with incubation for at least 2 hours, and the plates were stored at 4° C. until needed. Before use, the streptavidin plates were washed extensively in buffer-T. Added per well was peptide (100 μl 0.1 μM peptide in buffer-T), and then incubated for 30 minutes at room temperature with shaking. 200 μl of 0.5 mM biotin in buffer-T was added to block the remaining streptavidin sites, and plates were incubated for 15 minutes at room temperature. Plates were then washed with buffer-T to remove the excess biotin and peptide. Serial dilutions of biotinylated glycopeptide antibiotic in buffer-T were added (100 μl) to each well, representing a range of concentrations between 100 μM and […]. Plates were incubated for 30 minutes at room temperature with shaking prior to washing several times with buffer-T. Glycopeptide antibiotic was then detected by adding 100 μl of a diluted streptavidin-alkaline phosphatase conjugate to each well and incubated at room temperature for 30 minutes. Excess conjugate was removed by repeated washes with buffer-T, and the amount of alkaline phosphatase remaining in the well was detected using a pNPP (para-nitrophenylphosphate) colorimetric enzymatic assay. The relative amount of glycopeptide antibiotic captured by the peptides was determined by measuring the absorbance at 405 nm of the colored product of the alkaline phosphatase reaction. The EC50 was determined for each peptide relative to the binding affinity for the glycopeptide antibiotic used in the assay, as shown in Table 8 (with vancomycin as a representative glycopeptide antibiotic).

Data set [4] in a line: Stent flow model, retention of radiolabelled composition on coated stent. It is filed as binding. The conditions noted are these: 5 ml/min, 37° C.
Experimental: In this example, an in vitro model for in vivo stability on a medical device comprising a stent was performed. The stent flow model included a “circulatory system” comprising a peristaltic pump and clear silicone tubing into which is placed a stent (8 mm, stainless steel) coated with a composition according to the invention. Coating of the stents was accomplished by incubating the stents with radiolabelled composition 132 (specific activity 2,400 cpm/pmole at 20 μM in PBS) for 1 hour at 20° C., followed by extensive washing with buffer. […] In another variation of the stent flow model, 10% BSA+10 mM guanidinium chloride was circulated through the circulatory system at a flow rate of 5 ml/min for 18 hours at 37° C. After circulation in the respective variations of the stent flow model, the coated stents were then counted for radioactivity. To serve as an assay “control”, some coated stents were not placed in the stent flow model, but rather counted for radioactive counts to provide a reference from which percent retention could be calculated for those coated stents included in the stent flow model.
The subject of data set [5] is Staphylococcus aureus strain MZ100. Description: Tibia pin assay (coated titanium pins with vancomycin, bacterial culture). Also on record: key: —: no cfus; too many cfus to count, as they converge into one spot. As to conditions: 3 hours 37° C. It is filed as cell-based. The source says: In this assay, titanium pins were used as a model for tibia pins. Briefly, sterile pins were first coated with biofunctional composition (“SEQ ID NO:124-linker-SEQ ID NO:122”) comprising a substrate-binding peptide having binding specificity for vancomycin (“SEQ ID NO:124”) linked to a substrate-binding peptide having binding specificity for metal (“SEQ ID NO:122”), or a composition of the invention formed from compound comprising the biofunctional composition covalently coupled to fatty acid. The respective coatings also include vancomycin bound thereto. The coated pins were then placed in a silicone tube containing liquid bacterial growth medium and inoculated with bacteria. After incubation, the pins were removed, and then the liquid growth medium was serially diluted. The serial dilutions were inoculated onto bacterial culture plates, the plates were incubated, and counted on the plates were bacterial colonies.
In this assay, test samples (biofunctional composition (Table 6, “BC”) or compositions 133, 134, 135, 136 139) each were used to coat a pin by incubating the test sample (in a range of from about 0.8 mM to about 1 mM) with 2.5 μl of a 10 mM vancomycin solution and PBS to a final volume of 250 μl in a microtube (3 pins per tube) for 60 minutes at room temperature with occasional agitation. In a piece of silicone tubing (1.5 mm inner diameter, 50 mm long), added is tryptic soy broth+0.2% glucose, the coated pin, and 103 colony forming units (cfu) of Staphylococcus aureus strain MZ100 in either a 20 μl inoculum, 40 μl inoculum, or 60 μl inoculum. The tubing is clamped closed, and the tubing is incubated for 37° C. for 3 hours. After 3 hours, serial dilutions (1:10, 1:100, 1:1000) were made of the culture media from each tubing, and 10 μl of the undiluted culture medium and of each dilution were spotted onto the bacterial culture plate. The bacterial culture plate was incubated overnight at 37° C., and then the cfus were counted. The results, a composite of different assay runs, are shown in Table 6 (“−” means no cfus; “many” means too many cfus to count, as they converge into one spot; “NT” means not tested).

Square brackets hold non-standard residues; d marks the D form. Ends that are not written are not given here. Aun = NCCCCCCCCCCC(=O)O

On to “AUD-AUD-AUD-AUD-SEQ ID NO:122 ([Aun][Aun][Aun][Aun]SSHRTNHKKNNPKKKNKTRGSSGK) [Compound 122]”, for which the “retention of binding compared to substrate-binding peptide alone (SEQ ID NO:122)” value in data set [1] was “significantly improved retention”. In data set [2], the CMC amounted to 0.123 µM.
In the same order, the values of “AUD-AUD-K-AUD-AUD-AUD-AUD-SEQ ID NO: 122 ([Aun][Aun]K[Aun][Aun][Aun][Aun]SSHRTNHKKNNPKKKNKTRGSSGK) [Compound 123]” are “significantly improved retention” and 0.04 µM.
As to “Ac-Y-AUD-AUD-AUD-AUD-AUD-AUD-SEQ ID NO: 122 (Ac-Y[Aun][Aun][Aun][Aun][Aun][Aun]SSHRTNHKKNNPKKKNKTRGSSGK) [Compound 132]”, in data set [3], a half-maximal effect (EC50) was put at 0.06 µM. For the same substance, the “composition remained bound to the coated stents” value in data set [4] (10% BSA+10 mM guanidinium chloride, 18 hours) is on record as “over 90%”; in data set [4] (human plasma, 7 days), “over 90%”. Further, the CMC in data set [2] was 0.123 µM.
“SSHRTNHKKNNPKKKNKTRGSSGK [Compound 130, AUD-AUD-AUD-AUD-AUD-AUD-SEQ ID NO: 122]”: the concentration giving a half-maximal response (EC50) in data set [3] came out at 10 µM. Moreover, the CMC in data set [2] was 0.041 µM.
For “SSHRTNHKKNNPKKKNKTRGSSGK [Compound 131, AUD-AUD-AUD-AUD-AUD-AUD-AUD-AUD-SEQ ID NO: 122]” the same measures were 0.1 µM and 0.37 µM.
Turning to “SSSCLIDMYGVCHNFDGAYDSSRG [Compound 134, AUD-AUD-AUD-AUD-SEQ ID NO: 124-linker-SEQ ID NO: 122]”, a half-maximal response in data set [3] (EC50) required 10 µM. In addition, in data set [5] (Volume 20 μl inoculum), the “cfu 1:10” value was “—”, the “cfu 1:100” value is “—”, the “cfu 1:1000” value was “—” and the cfu undiluted entry was “—”. In data set [5] (Volume 40 μl inoculum), the “cfu 1:10” value is recorded as 6 cfu, the “cfu 1:100” value turned out to be 1 cfu, the “cfu 1:1000” value is “—” and the cfu undiluted result was “many”. Also, in data set [5] (Volume 60 μl inoculum), the “cfu 1:10” value was 17 cfu, the “cfu 1:100” value came out at 5 cfu, the “cfu 1:1000” value is on record as “—” and the cfu undiluted result is “many”.
